Seven compounds from PubChem BioAssay AID1919001 (Molecular Pharmacology Branch, DTP, NCI, 2023) can be followed below.

Structures are written as SMILES. Several values for one entry are separate records, joined by “and”; a condition that tells them apart may be missing. Equal entries are not always repeated.

This assay concerns 699152-130-R-J1-PDC complex spheroid growth. Kind of assay: Anticancer human tumor 699152-130-R-J1-PDC patient-derived pancreatic carcinoma cell line growth inhibition [AhR]. The following applies: for viability, T/C: stronger effect = lower value. Summed up:
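Spheroids combined tumor cells with HUVEC endothelial cells and human MSCs as stroma. AhR antagonists were paired with standard or investigational drugs, each dosed in half-log steps down from near clinical Cmax, or from 10 microM where Cmax was unknown.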

[1] abbreviates: curve of first compound, second compound 0.1 µM.
The mark [2] stands for this setting: curve of first compound, second compound 0.316 µM.
[3] abbreviates: curve of first compound, second compound 1 µM.
[4] abbreviates: curve of first compound, second compound 3.16 µM.
[5] abbreviates: curve of first compound, second compound 10 µM.
[6] abbreviates: second compound 0.1 µM, first compound 0.0316 µM.
Setting [7] is: second compound 0.1 µM, first compound 0.1 µM.
Where [8] appears, read: second compound 0.1 µM, first compound 0.316 µM.
[9] abbreviates: second compound 0.1 µM, first compound 1 µM.
The mark [10] stands for this setting: second compound 0.1 µM, first compound 3.16 µM.
Where [11] appears, read: second compound 0.1 µM, first compound 10 µM.
Where [12] appears, read: second compound 0.316 µM, first compound 0.0316 µM.
The mark [13] stands for this setting: second compound 0.316 µM, first compound 0.1 µM.
Where [14] appears, read: second compound 0.316 µM, first compound 0.316 µM.
[15] abbreviates: second compound 0.316 µM, first compound 1 µM.
The mark [16] stands for this setting: second compound 0.316 µM, first compound 3.16 µM.
[17] abbreviates: second compound 0.316 µM, first compound 10 µM.
The mark [18] stands for this setting: second compound 1 µM, first compound 0.0316 µM.
[19] abbreviates: second compound 1 µM, first compound 0.1 µM.
[20] abbreviates: second compound 1 µM, first compound 0.316 µM.
[21] abbreviates: second compound 1 µM, first compound 1 µM.
The mark [22] stands for this setting: second compound 1 µM, first compound 3.16 µM.
The mark [23] stands for this setting: second compound 1 µM, first compound 10 µM.
Setting [24] is: second compound 3.16 µM, first compound 0.0316 µM.
Setting [25] is: second compound 3.16 µM, first compound 0.1 µM.
Setting [26] is: second compound 3.16 µM, first compound 0.316 µM.
[27] abbreviates: second compound 3.16 µM, first compound 1 µM.
Where [28] appears, read: second compound 3.16 µM, first compound 3.16 µM.
The mark [29] stands for this setting: second compound 3.16 µM, first compound 10 µM.
The mark [30] stands for this setting: second compound 10 µM, first compound 0.0316 µM.
Setting [31] is: second compound 10 µM, first compound 0.1 µM.
Setting [32] is: second compound 10 µM, first compound 0.316 µM.
Setting [33] is: second compound 10 µM, first compound 1 µM.
Setting [34] is: second compound 10 µM, first compound 3.16 µM.
Setting [35] is: second compound 10 µM, first compound 10 µM.
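Also: compound exposure lasted 7 days after spheroids had grown for 3 days.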

As for `O=C(C=Cc1cccc(S(=O)(=O)Nc2ccccc2)c1)NO` + Cc1cncc(-c2nc(NCCc3c[nH]c4ccccc34)c3ncn(C(C)C)c3n2)c1, the IC50 reads like this: under setting [1], greater than 10000 nM; under setting [2], greater than 10000 nM; under setting [3], greater than 10000 nM; under setting [4], greater than 10000 nM; under setting [5], less than 31.6 nM. For the same compound, the viability, T/C is 110% under setting [6]; 96.5% under setting [7]; 102% under setting [8]; 117% under setting [9]; 98.8% under setting [10]; 91.3% under setting [11]. The viability, T/C under setting [12] is 114%; the viability, T/C under setting [13] was 96%; the viability, T/C under setting [14] was 101%; the viability, T/C under setting [15] is 112%; the viability, T/C under setting [16] was 101%; the viability, T/C under setting [17] is 82.8%. In addition, the viability, T/C under setting [18] is 112%; the viability, T/C under setting [19] is 120%; the viability, T/C under setting [20] was 121%; the viability, T/C under setting [21] was 109%; the viability, T/C under setting [22] was 96.6%; the viability, T/C under setting [23] is 87.5%. Further, the viability, T/C under setting [24] was 108%; the viability, T/C under setting [25] is 105%; the viability, T/C under setting [26] was 109%; the viability, T/C under setting [27] was 86.4%; the viability, T/C under setting [28] was 81.8%; the viability, T/C under setting [29] is 79%. Moreover, the viability, T/C was 27.2% under setting [30]; 20.6% under setting [31]; 21.4% under setting [32]; 19.4% under setting [33]; 17% under setting [34]; 10.1% under setting [35].
Turning to `CC1(C)CCC(CN2CCN(c3ccc(C(=O)NS(=O)(=O)c4ccc(NCC5CCOCC5)c([N+](=O)[O-])c4)c(Oc4cnc5[nH]ccc5c4)c3)CC2)=C(c2ccc(Cl)cc2)C1`, the viability, T/C runs as follows: (compound 0.0316 µM) 99.2% and 99% and 94.1%; (compound 0.1 µM) 122% and 97.6% and 103%; (compound 0.316 µM) 110% and 102% (2×); (compound 1 µM) 100% and 106% and 101%; (compound 3.16 µM) 106% and 89.5% and 115%; (compound 10 µM) 94% and 64.3% and 58.6%. Also, the IC50 (curve of compound) is greater than 10000 nM.
As to `CCN(c1cc(-c2ccc(CN3CCOCC3)cc2)cc(C(=O)NCc2c(C)cc(C)[nH]c2=O)c1C)C1CCOCC1`, the viability, T/C (compound 0.00949 µM) was 101% and 104% and 103%; the viability, T/C (compound 0.03 µM) is 95.7% and 110% and 98.5%; the viability, T/C (compound 0.0949 µM) was 111% and 87.2% and 115%; the viability, T/C (compound 0.3 µM) is 93.7% and 115% and 95%; the viability, T/C (compound 0.949 µM) was 107% and 114% and 113%; the viability, T/C (compound 3 µM) was 105% and 111% and 113%. The IC50 (curve of compound) was greater than 3000 nM.
`CC[C@@]1(O)C(=O)OCc2c1cc1n(c2=O)Cc2cc3c(CN(C)C)c(O)ccc3nc2-1`: the viability, T/C (compound 0.000316 µM) is 103% and 108% and 86.6%; the viability, T/C (compound 0.001 µM) is 91.2% and 96.4% and 99%; the viability, T/C (compound 0.00316 µM) is 104% and 102% and 90%; the viability, T/C (compound 0.01 µM) was 103% (2×) and 83.5%; the viability, T/C (compound 0.0316 µM) is 90.8% and 91.3% and 70%; the viability, T/C (compound 0.1 µM) was 62.8% and 70.9% and 53.5%. Also, under “curve of compound”, the half-maximal inhibitory concentration (IC50) was greater than 100 nM.
As for `COc1cccc2c1C(=O)c1c(O)c3c(c(O)c1C2=O)CC(O)(C(=O)CO)CC3OC1CC(N)C(O)C(C)O1` (stereo not drawn) + CC(CO)NC(=O)c1cc(-c2ccc(Cl)cc2)nn(-c2cnn(C)c2)c1=O, the IC50 is 453 nM under setting [1]; 378 nM under setting [2]; 462 nM under setting [3]; 370 nM under setting [4]; 325 nM under setting [5]. For the same compound, the viability, T/C reads like this: under setting [6], 71.2%; under setting [7], 86.7%; under setting [8], 56.8%; under setting [9], 29.1%; under setting [10], 1.94%; under setting [11], 11.6%. The viability, T/C runs as follows: under setting [12], 83.2%; under setting [13], 74.2%; under setting [14], 56%; under setting [15], 21.6%; under setting [16], 2.1%; under setting [17], 11.6%. For the same compound, the viability, T/C by setting is: under setting [18], 70.4%; under setting [19], 72.7%; under setting [20], 64.1%; under setting [21], 20.7%; under setting [22], 2.66%; under setting [23], 12.9%. Also, the viability, T/C was 68.1% under setting [24]; 69.9% under setting [25]; 56.2% under setting [26]; 9.03% under setting [27]; 8.71% under setting [28]; 15.1% under setting [29]. Also, the viability, T/C under setting [30] was 73.4%; the viability, T/C under setting [31] is 69.3%; the viability, T/C under setting [32] is 51.1%; the viability, T/C under setting [33] was 2.91%; the viability, T/C under setting [34] was 5.62%; the viability, T/C under setting [35] was 12.8%.
Regarding `Nc1ncn(C2CC(O)C(CO)O2)c(=O)n1` (stereo not drawn) + Cc1ccccc1N=Nc1ccc(NC(=O)c2ccnn2C)c(C)c1, the half-maximal inhibitory concentration (IC50) by setting is: under setting [1], greater than 1000 nM; under setting [2], greater than 1000 nM; under setting [3], greater than 1000 nM; under setting [4], greater than 1000 nM; under setting [5], greater than 1000 nM. The viability, T/C (second compound 0.1 µM, first compound 0.00316 µM) was 98.3%; the viability, T/C (second compound 0.1 µM, first compound 0.01 µM) is 98.6%; the viability, T/C under setting [6] is 93.7%; the viability, T/C under setting [7] is 86.6%; the viability, T/C under setting [8] is 81.9%; the viability, T/C under setting [9] was 78.7%. In addition, the viability, T/C is 95.3% (second compound 0.316 µM, first compound 0.00316 µM); 91.7% (second compound 0.316 µM, first compound 0.01 µM); 99.7% under setting [12]; 90.5% under setting [13]; 85.6% under setting [14]; 80.6% under setting [15]. For the same compound, the viability, T/C is, setting by setting: (second compound 1 µM, first compound 0.00316 µM) 93.9%; (second compound 1 µM, first compound 0.01 µM) 95.6%; under setting [18], 87.9%; under setting [19], 91.2%; under setting [20], 88.7%; under setting [21], 88.5%. Also, the viability, T/C is, setting by setting: (second compound 3.16 µM, first compound 0.00316 µM) 104%; (second compound 3.16 µM, first compound 0.01 µM) 102%; under setting [24], 86.8%; under setting [25], 77.2%; under setting [26], 104%; under setting [27], 86.4%. The viability, T/C reads like this: (second compound 10 µM, first compound 0.00316 µM) 117%; (second compound 10 µM, first compound 0.01 µM) 103%; under setting [30], 75.3%; under setting [31], 83.9%; under setting [32], 86.5%; under setting [33], 85.6%.
In the case of `Cn1ncnc1C1c2n[nH]c(=O)c3cc(F)cc(c23)NC1c1ccc(F)cc1` (stereo not drawn), the viability, T/C was 103% and 92% and 97.7% (compound 0.000316 µM); 100% and 90.9% and 98.2% (compound 0.001 µM); 109% and 95.2% and 113% (compound 0.00316 µM); 101% and 102% and 111% (compound 0.01 µM); 102% and 100% and 97.5% (compound 0.0316 µM); 104% and 86.2% and 91% (compound 0.1 µM). Under “curve of compound”, the IC50 is greater than 100 nM.
